Each structure is given as a SMILES string. Starred links: 1 amine or outer side, 2 acyl side, 3 side chain; linkers in the order of their positions; H or OH if unused. Positions of bridges follow the written chain, without caps; N, C: chain ends. Non-standard residues stand in square brackets, D forms with d. Residues, ends and D or L forms follow the SMILES beside them. Groups on a side chain read outwards from the residue. *: point of attachment. Phe(4-(1-Me-pyrazol-4-yl)) = Cn1cc(-c2ccc(C[C@H](N)C(=O)O)cc2)cn1; NMeAla(isoquinolin-7-yl) = CN[C@@H](Cc1ccc2ccncc2c1)C(=O)O; DOTA = O=C(O)CN1CCN(CC(=O)O)CCN(CC(=O)*)CCN(CC(=O)O)CC1; PEG12 = NCCOCCOCCOCCOCCOCCOCCOCCOCCOCCOCCOCCOCCC(=O)O; Phe(4-CH2COOH) = N[C@@H](Cc1ccc(CC(=O)O)cc1)C(=O)O; 3Pal(6-Ph) = N[C@@H](Cc1ccc(-c2ccccc2)nc1)C(=O)O; Biotin = O=C1N[C@H]2[C@H](CS[C@H]2CCCCC(=O)*)N1; Phe(4-COOH) = N[C@@H](Cc1ccc(C(=O)O)cc1)C(=O)O; Piperazinyl(4-CH2COOH) = O=C(O)CN1CCN(*)CC1; NMe2Nal = CN[C@@H](Cc1ccc2ccccc2c1)C(=O)O; AEF = NCCOc1ccc(C[C@H](N)C(=O)O)cc1; NMeI = CC[C@H](C)[C@H](NC)C(=O)O; NMeQ = CN[C@@H](CCC(N)=O)C(=O)O; NMehSer = CN[C@@H](CCO)C(=O)O; NMeK = CN[C@@H](CCCCN)C(=O)O; NMeDap = CN[C@@H](CN)C(=O)O; NMeC = CN[C@@H](CS)C(=O)O; Carboxymethyl = O=C(O)C*; NMeA = CN[C@@H](C)C(=O)O; CO = O=C([*:1])[*:2]

The assay deals with Human Glypican3-Fc (Homo sapiens, UniProt P51654). Kind of assay: SPR binding to Glypican-3, Method B-3 (Glypican3-Fc captured on Protein A chip, 5-point dilution series). Particulars: SPR method B-3. As for the experimental part: A Protein A sensor chip (Cytiva) was inserted into a Biacore T200 (Cytiva), priming was performed three times with a running buffer: HBS-P+, pH 7.4 (Cytiva), and equilibration was carried out at a flow rate of 30 μL/min. Glypican3-Fc was allowed to react for 60 seconds at a flow rate of 10 μL/min. After capturing human Glypican3-Fe, a peptide solution prepared to 10 mM in DMSO solution was diluted with a running buffer to a final concentration of 10 μM. After that, 5 serial dilution series (100 nM, 50 nM, 25 nM, 10 nM, 5 nM) of peptide solutions were prepared. Using the above samples, peptide kinetics for Glypican3 was obtained by SPR measurement. Kinetics evaluation of Glypican3 was performed by SPR measurements at a flow rate of 10 LL/min, setting the association time to 120 seconds and the disassociation time to 600 seconds.
The obtained data by Method B-1, Method B-2, Method B-3 and Method B-4 were analyzed by follow. Single Cycle Kinetics was used as the kinetics evaluation model, and curve fitting was performed using Biacore T200 Evaluation Software Version 3.0 (Cytiva).
A general note: In SPR one partner is held on a chip, and binding of the other changes the refractive index at the surface.
One may read the Kd as the constant that tells how readily two partners part at equilibrium. Higher therefore signals weaker binding. In the case of `CC[C@H](C)[C@@H]1NC(=O)[C@H]([C@@H](C)OC)NC(=O)[C@H](Cc2ccc(C(=O)O)cc2)NC(=O)[C@H](CNC(=O)N2CCN(CC(=O)O)CC2)N(C)C(=O)[C@H](CC(=O)O)NC(=O)[C@H](CCOC)N(C)C(=O)[C@H](CNC(=O)N2CCN(CC(=O)O)CC2)N(C)C(=O)CSC[C@@H](C(N)=O)N(C)C(=O)[C@H](Cc2ccc(-c3ccccc3)nc2)NC(=O)CNC(=O)[C@H](Cc2ccc3ccncc3c2)N(C)C(=O)[C@H](Cc2ccc(OCCN)cc2)NC1=O` [Conjugate 2-37] ({CH2CO}-[NMeDap]([CO-Piperazinyl(4-CH2COOH)])[NMehSer](Me)D[NMeDap]([CO-Piperazinyl(4-CH2COOH)])[Phe(4-COOH)]T(Me)I[AEF][NMeAla(isoquinolin-7-yl)]G[3Pal(6-Ph)][NMeC]-NH2; thioether N-12 (inferred)), the dissociation constant Kd was 1 nM. Next, `CC[C@H](C)[C@@H]1NC(=O)[C@H]([C@@H](C)OC)NC(=O)[C@H](Cc2ccc(C(=O)O)cc2)NC(=O)[C@H](CCC(N)=O)N(C)C(=O)[C@H](CC(=O)O)NC(=O)[C@H]([C@@H](C)CC)N(C)C(=O)[C@H](CCCCN)N(C)C(=O)CSC[C@@H](C(N)=O)N(C)C(=O)[C@H](Cc2ccc(-c3ccccc3)nc2)NC(=O)CNC(=O)[C@H](Cc2ccc3ccncc3c2)N(C)C(=O)[C@H](Cc2ccc(O)cc2)NC1=O` [Conjugate 2-60] ({CH2CO}-[NMeK][NMeI]D[NMeQ][Phe(4-COOH)]T(Me)IY[NMeAla(isoquinolin-7-yl)]G[3Pal(6-Ph)][NMeC]-NH2; thioether N-12): 0.23 nM; `CC[C@H](C)[C@@H]1NC(=O)[C@H](Cc2ccc(C(=O)O)cc2)NC(=O)[C@H](CCC(N)=O)N(C)C(=O)[C@H](CC(=O)O)NC(=O)[C@H]([C@@H](C)CC)N(C)C(=O)[C@H](CCCCNC(=O)CCOCCOCCOCCOCCOCCOCCOCCOCCOCCOCCOCCOCCNC(=O)CCCC[C@@H]2SC[C@@H]3NC(=O)N[C@@H]32)N(C)C(=O)CSC[C@@H](C(N)=O)N(C)C(=O)[C@H](Cc2ccc(-c3ccccc3)nc2)NC(=O)CNC(=O)[C@H](Cc2ccc3ccncc3c2)N(C)C(=O)[C@H](Cc2ccc(OCC(=O)O)cc2)NC(=O)[C@H]([C@@H](C)CC)NC1=O` [PLB-64] ({CH2CO}-[NMeK]([PEG12-Biotin])[NMeI]D[NMeQ][Phe(4-COOH)]IIY(Carboxymethyl)[NMeAla(isoquinolin-7-yl)]G[3Pal(6-Ph)][NMeC]-NH2; thioether N-12): 1.04 nM. Next, `CC[C@H](C)[C@@H]1NC(=O)[C@H](Cc2ccc(C(=O)O)cc2)NC(=O)[C@H](CCC(N)=O)N(C)C(=O)[C@H](CC(=O)O)NC(=O)[C@H](CCOC)N(C)C(=O)[C@H](CCCCN)N(C)C(=O)CSC[C@@H](C(N)=O)N(C)C(=O)[C@H](Cc2ccc(-c3ccccc3)nc2)NC(=O)CNC(=O)[C@H](Cc2ccc3ccccc3c2)N(C)C(=O)[C@H](Cc2ccc(CC(=O)O)cc2)NC(=O)[C@H]([C@@H](C)CC)NC1=O` [Conjugate 2-47] ({CH2CO}-[NMeK][NMehSer](Me)D[NMeQ][Phe(4-COOH)]II[Phe(4-CH2COOH)][NMe2Nal]G[3Pal(6-Ph)][NMeC]-NH2; thioether N-12): 0.2 nM; `CC[C@H](C)[C@@H]1NC(=O)[C@H]([C@@H](C)OC)NC(=O)[C@H](Cc2ccc(C(=O)O)cc2)NC(=O)[C@H](CCC(N)=O)N(C)C(=O)[C@H](CC(=O)O)NC(=O)[C@H](CCOC)N(C)C(=O)[C@H](CCCCNC(=O)CN2CCN(CC(=O)O)CCN(CC(=O)O)CCN(CC(=O)O)CC2)N(C)C(=O)CSC[C@@H](C(N)=O)N(C)C(=O)[C@H](Cc2ccc(-c3ccccc3)nc2)NC(=O)CNC(=O)[C@H](Cc2ccc3ccncc3c2)N(C)C(=O)[C@H](Cc2ccc(OCC(=O)O)cc2)NC1=O` [Lu-C-63] ({CH2CO}-[NMeK](DOTA)[NMehSer](Me)D[NMeQ][Phe(4-COOH)]T(Me)IY(Carboxymethyl)[NMeAla(isoquinolin-7-yl)]G[3Pal(6-Ph)][NMeC]-NH2; thioether N-12): 1.6 nM; `CC[C@H](C)[C@@H]1NC(=O)[C@H]([C@@H](C)OC)NC(=O)[C@H](Cc2ccc(NCC(=O)O)nc2)NC(=O)[C@H](CNC(=O)N2CCN(CC(=O)O)CC2)N(C)C(=O)[C@H](CC(=O)O)NC(=O)[C@H](CCCCNC(=O)N2CCN(CC(=O)O)CC2)N(C)C(=O)[C@H](CCCCN)N(C)C(=O)CSC[C@@H](C(N)=O)N(C)C(=O)[C@H](Cc2ccc(-c3ccccc3)nc2)NC(=O)CNC(=O)[C@H](Cc2ccc3ccncc3c2)N(C)C(=O)[C@H](Cc2ccc(OCC(=O)O)cc2)NC1=O` [Conjugate 2-30]: 6.6 nM. `CC[C@H](C)[C@@H]1NC(=O)[C@H]([C@@H](C)OC)NC(=O)[C@H](Cc2ccc(C(=O)O)cc2)NC(=O)[C@H](CCC(N)=O)N(C)C(=O)[C@H](CC(=O)O)NC(=O)[C@H](CCOC)N(C)C(=O)[C@H](C)N(C)C(=O)CSC[C@@H](C(N)=O)N(C)C(=O)[C@H](Cc2ccc(-c3ccccc3)nc2)NC(=O)CNC(=O)[C@H](Cc2ccc3ccccc3c2)N(C)C(=O)[C@H](Cc2ccc(OCCN)cc2)NC1=O` [Conjugate 2-28] ({CH2CO}-[NMeA][NMehSer](Me)D[NMeQ][Phe(4-COOH)]T(Me)I[AEF][NMe2Nal]G[3Pal(6-Ph)][NMeC]-NH2; thioether N-12) showed an equilibrium dissociation constant (Kd) of 0.3 nM. For `CC[C@H](C)[C@@H]1NC(=O)[C@H]([C@@H](C)OC)NC(=O)[C@H](Cc2ccc(C(=O)O)cc2)NC(=O)[C@H](CCC(N)=O)N(C)C(=O)[C@H](CC(=O)O)NC(=O)[C@H]([C@@H](C)CC)N(C)C(=O)[C@H](CCCCN)N(C)C(=O)CSC[C@@H](C(N)=O)N(C)C(=O)[C@H](Cc2ccc(-c3ccccc3)nc2)NC(=O)CNC(=O)[C@H](Cc2ccc3ccncc3c2)N(C)C(=O)[C@H](Cc2ccc(OCC(=O)O)cc2)NC1=O` [Conjugate 2-26] ({CH2CO}-[NMeK][NMeI]D[NMeQ][Phe(4-COOH)]T(Me)IY(Carboxymethyl)[NMeAla(isoquinolin-7-yl)]G[3Pal(6-Ph)][NMeC]-NH2; thioether N-12), the dissociation constant Kd was 0.3 nM. Regarding `CC[C@H](C)[C@@H]1NC(=O)[C@H]([C@@H](C)OC)NC(=O)[C@H](Cc2ccc(C(=O)O)cc2)NC(=O)[C@H](CCC(N)=O)N(C)C(=O)[C@H](CC(=O)O)NC(=O)[C@H](CCOC)N(C)C(=O)[C@H](CCCCNC(=O)N2CCN(CC(=O)O)CC2)N(C)C(=O)CSC[C@@H](C(N)=O)N(C)C(=O)[C@H](Cc2ccc(-c3ccccc3)nc2)NC(=O)CNC(=O)[C@H](Cc2ccc3ccncc3c2)N(C)C(=O)[C@H](Cc2ccc(O)cc2)NC1=O` [Conjugate 2-24] ({CH2CO}-[NMeK]([CO-Piperazinyl(4-CH2COOH)])[NMehSer](Me)D[NMeQ][Phe(4-COOH)]T(Me)IY[NMeAla(isoquinolin-7-yl)]G[3Pal(6-Ph)][NMeC]-NH2; thioether N-12), the Kd was 0.5 nM.

As for `CC[C@H](C)[C@@H]1NC(=O)[C@H](Cc2ccc(C(=O)O)cc2)NC(=O)[C@H](CCCCN)N(C)C(=O)[C@H](CC(=O)O)NC(=O)[C@H](CCC(N)=O)N(C)C(=O)[C@H](CCC(N)=O)N(C)C(=O)CSC[C@@H](C(N)=O)N(C)C(=O)[C@H](Cc2ccc(-c3cnn(C)c3)cc2)NC(=O)CNC(=O)[C@H](Cc2ccc3ccccc3c2)N(C)C(=O)[C@H](Cc2ccc(CC(=O)O)cc2)NC(=O)[C@H]([C@@H](C)CC)NC1=O` [Conjugate 2-52] ({CH2CO}-[NMeQ][NMeQ]D[NMeK][Phe(4-COOH)]II[Phe(4-CH2COOH)][NMe2Nal]G[Phe(4-(1-Me-pyrazol-4-yl))][NMeC]-NH2; thioether N-12), binding was characterised by a dissociation constant (Kd) of 1.6 nM. As for `CC[C@H](C)[C@@H]1NC(=O)[C@H](Cc2ccc(C(=O)O)cc2)NC(=O)[C@H](CCC(N)=O)N(C)C(=O)[C@H](CC(=O)O)NC(=O)[C@H](CCOC)N(C)C(=O)[C@H](CCCCN)N(C)C(=O)CSC[C@@H](C(N)=O)N(C)C(=O)[C@H](Cc2ccc(-c3cnn(C)c3)cc2)NC(=O)CNC(=O)[C@H](Cc2ccc3ccccc3c2)N(C)C(=O)[C@H](Cc2ccc(CC(=O)O)cc2)NC(=O)[C@H]([C@@H](C)CC)NC1=O` [Conjugate 2-48] ({CH2CO}-[NMeK][NMehSer](Me)D[NMeQ][Phe(4-COOH)]II[Phe(4-CH2COOH)][NMe2Nal]G[Phe(4-(1-Me-pyrazol-4-yl))][NMeC]-NH2; thioether N-12), the figure is 0.5 nM; as for `CC[C@H](C)[C@@H]1NC(=O)[C@H](Cc2ccc(C(=O)O)cc2)NC(=O)[C@H](CCC(N)=O)N(C)C(=O)[C@H](CCC(N)=O)NC(=O)[C@H]([C@@H](C)CC)N(C)C(=O)[C@H](CCCCN)N(C)C(=O)CSC[C@@H](C(N)=O)N(C)C(=O)[C@H](Cc2ccc(-c3cnn(C)c3)cc2)NC(=O)CNC(=O)[C@H](Cc2ccc3ccccc3c2)N(C)C(=O)[C@H](Cc2ccc(C(=O)O)cc2)NC(=O)[C@H]([C@@H](C)CC)NC1=O` [Conjugate 2-46] ({CH2CO}-[NMeK][NMeI]Q[NMeQ][Phe(4-COOH)]II[Phe(4-COOH)][NMe2Nal]G[Phe(4-(1-Me-pyrazol-4-yl))][NMeC]-NH2; thioether N-12), 0.2 nM.
